Measurements: US20110236326A1, “Skin Whitener” (Cognis IP Management GmbH, priority 2008, published 2011)

What was measured:
[1] = test system: Melanocytes (B16 cell line); test: Melanogenesis inhibition assay (melanin level and cellular proteins); format: cell-based; details: 3 days incubation; for Melanin level: B16 cells, OD 475 nm
Method: Melanocytes (B16 cell line) are inoculated in standard medium of cell culture with fetal calf serum (FCS). After an incubation of 3 days at 37° C. and CO2=5%, growth medium is exchanged for standard medium with a range of concentrations for the compound to be tested and a control without ingredient. After an incubation of 3 days, the level of melanin is measured by recording the optical density at 475 nm. After washing the cells by a balanced salt, and homogenization in a solution of 0.1 M NaOH, the number of viable cells is determined by the level of cellular proteins (Bradford's method).
The results are expressed in % against control (cell culture medium without compound) as a mean on 1 to 3 assays, each in triplicate.

mushroom tyrosinase = test: Mushroom tyrosinase inhibition assay; format: biochemical; details: DOPA substrate, pH 6.8
Method: In the melanin biosynthesis pathway, tyrosinase is a key enzyme catalyzing the initial steps: the oxidation of tyrosine into dihydroxyphenylalanine (DOPA) and of DOPA into Dopaquinone. In phosphate buffer at pH 6.8, DOPA is mixed with a range of concentration of the compound to be tested, and a control without compound. After addition of mushroom tyrosinase, oxidation of DOPA is recorded by measuring OD at 475 nm during 30 sec. The % of tyrosinase inhibition is expressed in % against control as a mean of 2-3 assays.

% of tyrosinase inhibition (mushroom tyrosinase; dose 0.0001 % (w/v)) [%]	% of tyrosinase inhibition (mushroom tyrosinase; dose 0.001 % (w/v)) [%]	% of tyrosinase inhibition (mushroom tyrosinase; dose 0.01 % (w/v)) [%]	SMILES	Melanin level ([1]; dose 0.001 % (w/v)) [%/control]	Melanin level ([1]; dose 0.003 % (w/v)) [%/control]	Protein level (rate of cellular proteins, viable cells by Bradford's method) ([1]; dose 0.001 % (w/v)) [%/control]	Protein level (rate of cellular proteins, viable cells by Bradford's method) ([1]; dose 0.003 % (w/v)) [%/control]	Melanin level ([1]; dose 0.01 % (w/v)) [%/control]	Protein level (rate of cellular proteins, viable cells by Bradford's method) ([1]; dose 0.01 % (w/v)) [%/control]
			Cc1ccc(NC(=O)NN)c(C)c1 [1-amino-3-(2,4-dimethylphenyl)urea]	98	87	103	99		
			CN(N)C(=O)Nc1ccccc1 [1-amino-1-methyl-3-phenylurea]	92	88	102	99		
31	55	89	NNC(=O)Nc1ccccc1 [1-amino-3-phenylurea]	79	47	95	94	19	104
